{"source": "patent US20110034531A1", "about": "“USE OF HDAC INHIBITORS FOR THE TREATMENT OF MELANOMA” (NOVARTIS AG, priority 2007, published 2011)", "key": {"[1]": {"tested_on": "RPMI-7951", "assay": "Monolayer growth inhibition assay (MTT/MTS), RPMI-7951", "assay_type": "cell-based", "details": "RPMI-7951 melanoma cell line, treated for 3 days", "source_text": "(§1) The MTT is a colorimetric assay to determine the cell proliferation rate. The yellow tetrazolium MTT (3-(4,5-dimethylthiazolyl-2)-2,5-diphenyltetrazolium bromide) is reduced by metabolically active cells, in part by the action of dehydrogenase enzymes, to generate reducing equivalents, such as NADH and NADPH. The resulting intracellular purple formazan can be solubilized and quantified by spectrophotometric means. The signals produced is directly proportional to the cell numbers. Describing the MTT assay in detail, experiments were done using six-point or nine-point drug titrations in multi-well tissue culture dishes, with outer rows left empty. Cells were suspended in complete media at densities of between 10^3 and 10^4 cell/mL, respectively, and added per well. The appropriate medium (200 μL) was then added. […] This plate was incubated at 37° C. for 4 hours and the optical density was measured on a Molecular Devices Thermomax at 490 nm using the Softmax program. […]\n(§2) Compound addition began 24 hours after seeding, the same time as the T0 determination. […] The MTS solution was added (as for the To plate) and read 4 hours later. […]\n(§3) A panel of Melanoma cell lines were treated with DMSO vehicle control or varying concentrations of LBH589 for 3 days. Cell proliferation was measured on the day of cell plating and on the third day post-treatment. IC50 and LD50 values were calculated as described above."}, "[2]": {"tested_on": "panel of Melanoma cell lines", "source_text": "as §1, §2, §3"}, "[3]": {"tested_on": "A375", "assay": "Monolayer growth inhibition assay (MTT/MTS), A375", "assay_type": "cell-based", "details": "A375 melanoma cell line, treated for 3 days", "source_text": "as §1, §2, §3"}, "[4]": {"tested_on": "MeWo", "assay": "Monolayer growth inhibition assay (MTT/MTS), MeWo", "assay_type": "cell-based", "details": "MeWo melanoma cell line, treated for 3 days", "source_text": "as §1, §2, §3"}, "[5]": {"tested_on": "SK-MEL-5", "assay": "Monolayer growth inhibition assay (MTT/MTS), SK-MEL-5", "assay_type": "cell-based", "details": "SK-MEL-5 melanoma cell line, treated for 3 days", "source_text": "as §1, §2, §3"}, "[6]": {"tested_on": "SK-MEL-28", "assay": "Monolayer growth inhibition assay (MTT/MTS), SK-MEL-28", "assay_type": "cell-based", "details": "SK-MEL-28 melanoma cell line, treated for 3 days", "source_text": "as §1, §2, §3"}, "[7]": {"tested_on": "A2058", "assay": "Monolayer growth inhibition assay (MTT/MTS), A2058", "assay_type": "cell-based", "details": "A2058 melanoma cell line, treated for 3 days", "source_text": "as §1, §2, §3"}, "[8]": {"tested_on": "G-361", "assay": "Monolayer growth inhibition assay (MTT/MTS), G-361", "assay_type": "cell-based", "details": "G-361 melanoma cell line, treated for 3 days", "source_text": "as §1, §2, §3"}, "[9]": {"tested_on": "WM-266-4", "assay": "Monolayer growth inhibition assay (MTT/MTS), WM-266-4", "assay_type": "cell-based", "details": "WM-266-4 melanoma cell line, treated for 3 days", "source_text": "as §1, §2, §3"}, "[10]": {"details": "Homo sapiens, 72 h, read-out: IC50 [nM] Measure of Cell Growth Inhibition"}, "[11]": {"details": "concentration reducing cell number to 50% of original inoculum"}}}
{"smiles": "Cc1[nH]c2ccccc2c1CCNCc1ccc(/C=C/C(=O)NO)cc1", "note": "[LBH589, N-hydroxy-3-[4-[[[2-(2-methyl-1H-indol-3-yl)-ethyl]-amino]methyl]phenyl]-2E-2-propenamide]", "values": [{"measurement": "IC50", "setting": "[1]; [10]", "value": 27.6, "unit": "nM"}, {"measurement": "LD50 (nM) Measure of Cell Kill", "setting": "[1]; [11]", "value": 71.63, "unit": "nM"}, {"measurement": "LD50, cytotoxic effect", "setting": "[2]; 3 days", "value": "< 160", "unit": "nM"}, {"measurement": "IC50 values, anti-proliferative effect", "setting": "[2]; all 8 melanoma cell lines examined, treated for 3 days", "value": "low nanomolar"}, {"measurement": "LD50 (nM) Measure of Cell Kill", "setting": "[3]; [11]", "value": 77.83, "unit": "nM"}, {"measurement": "IC50", "setting": "[3]; Homo sapiens, A-375, 72 h, read-out: IC50 [nM] Measure of Cell Growth Inhibition", "value": 32.7, "unit": "nM"}, {"measurement": "IC50", "setting": "[4]; [10]", "value": 34.5, "unit": "nM"}, {"measurement": "LD50 (nM) Measure of Cell Kill", "setting": "[4]; [11]", "value": 157.64, "unit": "nM"}, {"measurement": "IC50", "setting": "[5]; [10]", "value": 6.15, "unit": "nM"}, {"measurement": "LD50 (nM) Measure of Cell Kill", "setting": "[5]; [11]", "value": 54.95, "unit": "nM"}, {"measurement": "IC50", "setting": "[6]; [10]", "value": 43.1, "unit": "nM"}, {"measurement": "LD50 (nM) Measure of Cell Kill", "setting": "[6]; [11]", "value": 129.33, "unit": "nM"}, {"measurement": "LD50 (nM) Measure of Cell Kill", "setting": "[7]; [11]", "value": 58.96, "unit": "nM"}, {"measurement": "IC50", "setting": "[7]; [10]", "value": 17.8, "unit": "nM"}, {"measurement": "LD50 (nM) Measure of Cell Kill", "setting": "[8]; [11]", "value": 51.44, "unit": "nM"}, {"measurement": "IC50", "setting": "[8]; [10]", "value": 8.09, "unit": "nM"}, {"measurement": "IC50", "setting": "[9]; [10]", "value": 26.4, "unit": "nM"}, {"measurement": "LD50 (nM) Measure of Cell Kill", "setting": "[9]; [11]", "value": 73.05, "unit": "nM"}]}
